Legend:
white mongrel mice = assay: Endurance of mice in the treadmill test (running to complete exhaustion); format: in vivo; details: for Running time of mice (M ± m): treadmill 29-31 m/min, 1 hour after administration
Procedure: In order to find out whether phenylcreatine is a functional analogue of creatine, and also how much its effect is related to the strength of creatine, the functional state of the mice was assessed, namely, the body weight was measured, activity and endurance in the test on white mongrel mice were assessed-males weighing 18-22 g. Two experimental groups of mice and one control group (10 mice in each group) were selected. Initially, the animals were of equal mass. The animals were kept in accordance with the rules adopted by the European Convention for the Protection of Vertebrates used for experimental and other purposes (European Convention for the Protection of Vertebrates used for Experiments or for Other Scientific Purposes (EST No. 123), Strasbourg, 18 March 1986, M., 1990, 12 pp.). Animals were kept in standard vivarium conditions. The animals were killed by decapitation in accordance with the “Rules for carrying out work using experimental animals”, approved by order of the Ministry of Health of the USSR No. 742 of 13 Nov. 1984 (Bolshakov […] Didactic and ethical aspects of research on biomodels and on laboratory animals//Qualitative clinical practice. 2002. No. 1. P.58-61). Within 20 days, the animals received an aqueous solution of creatine in a dosage of 0.3 mg per gram of weight. […] Upon administration, the drug was dissolved in 0.3 ml of water and injected into mice through a probe into the stomach daily in the morning, on an empty stomach. The animals of the control group received a similar volume of water. Phenylcreatine was also administered for 20 days in an amount of 50 mg per kg of body weight. Endurance of mice under physical exertion was assessed according to a standard procedure (Emirova L R Potention by […] of the action of medicinal substances that increase the endurance of athletes: dis . . . medical doctor: 14.00.25. M., 2004. 125 pp.) for the duration of running in the treadmill test. The animals of each group were subjected to daily training loads in a high load power mode, which was modelled by running on a treadmill at a speed of 29-31 m/min. The duration of daily mice training was 5 minutes. Endurance of mice was tested on the 1st, 5th, 10th, 15th, 20th and 25th days of training against the background of administration of drugs (or distilled water in the control). Endurance testing was conducted under the same conditions as training. Endurance was tested 1 hour after drug administration (Petrenko E R Comparative pharmacological study of adaptogenic properties of ginseng preparations: dis . . . candidate of biological sciences: 14.00.25., St. Petersburg, 1998. 126 pp.) until fatigue, the criterion of which was the lack of reaction of mice to stimulation of the legs and tail by electric current (Stratienko E N Influence of phenylethyl substituted derivatives of 3-oxypridine on the physical working capacity of mice under conditions of hypobaric hypoxia: dis . . . . Medical Candidate of Sciences Bryansk, 1996. DSP. 201 pp.). Running time was recorded in seconds. The study was carried out at rest, an hour after the administration of creatine or phenylcreatine, and immediately after the end of the run in the treadmill. Statistical processing of data was carried out in the program Statistica, for all data groups, using the Student's criterion. The following results were obtained concerning the effect of the intake of creatine and phenylcreatine on the endurance of mice. Dosages of 10 mg of phenylcreatine per animal and 300 mg of creatine per animal were used.

[1] = Stability of phenylcreatine compared to creatine in blood serum (RP-HPLC peak areas); format: in vitro ADME, human
Procedure: The study of the stability of phenylcreatine and creatine in aqueous solution and in human blood was carried out as follows. For the preparation of solutions of test substances on an analytical balance the exactly weighed phenylcreatine and creatine were taken. The calculated amount of double-distilled water was added to them to obtain a concentration of 1 mg/ml. A part of the solution was diluted 10 times, and the sample was immediately analyzed. Further, that solution was kept at room temperature and after 3 hours the analysis was repeated. Further according to the method described in Dunnett, Harris & Orme (1991) Reverse phase ion-pairing high performance liquid chromatography of phosphocreatine, creatine and creatinine in equine muscle. Scand. J. Clin. Lab. Invest. 51, 137-141, page 139, aliquot (c), creatinine, creatine and phosphocreatine were removed from the samples used for obtaining of the blood serum for mixing, to obtain more accurate results. 1 ml of water or prepared according to the method above blood serum was added to 200 μl of a solution in water of initial substance with a concentration of 2-3 mg/ml, shaken and a sample of 200 μl volume was immediately taken and initial concentration was analyzed. Then the solution was placed in a vibration thermostat at 37° C. and an aliquot of 200 μl was taken in 0.5, 1 and 3 hours of incubation. 20 μl of a 10% solution of trichloroacetic acid was added to the selected sample and kept for 15 min at a temperature of minus 24° C., centrifuged at 6000 g for 5 min to precipitate the plasma proteins, supernatant was collected and its analysis was conducted. The study of the stability of phenylcreatine compared to creatine in an aqueous solution and blood was carried out using reversed-phase HPLC using a chromatographic system Agilent 1220 Infinity LC System (USA). To assess the stability of the analytes, the peak areas of the compounds were compared at the beginning of the experiment and at selected intervals (Table 2).

[2] = 15th day of the study, control 1.1 times
[3] = 20th day of the study, control 1.4 times
[4] = 25th day of research, control 1.7 times
[5] = 1 d, 10 mg phenylcreatine or 300 mg creatine per animal
[6] = 0 h, initial, peak area relative to the beginning of the experiment

Row | Structure (SMILES) | Increase of running time to total fatigue (white mongrel mice; [2]) | Increase of running time to total fatigue (white mongrel mice; [3]) | Increase of running time to total fatigue (white mongrel mice; [4]) | Running time of mice (M ± m) (white mongrel mice; [5]) | Running time of mice (M ± m) (white mongrel mice; 5 d) | Running time of mice (M ± m) (white mongrel mice; 10 d) | Running time of mice (M ± m) (white mongrel mice; 15 d) | Running time of mice (M ± m) (white mongrel mice; 20 d) | Running time of mice (M ± m) (white mongrel mice; 25 d) | Stability in a blood serum [1, 6] | Stability in a blood serum ([1]; 0.5 h incubation at 37° C.) | Stability in a blood serum ([1]; 1 h incubation at 37° C.) | Stability in a blood serum ([1]; 3 h incubation at 37° C.) | Speed of increase of the effect relative to the group receiving creatine (white mongrel mice; mice treadmill) | Concentration in the blood (in words) ([1]; for 3 hours)
1 | CN(CC(=O)O)C(=N)N [creatine, 2-(methylguanine)-ethane acid] | 2.8 times | 4.5 times | 5.6 times | 626.00 ± 32.25 s | 772.60 ± 33.07 s | 775.80 ± 37.01 s | 1811.30 ± 85.82 s | 2794.70 ± 103.22 s | 3697.5 ± 1373 s | 100% | 98% | 67% | 52% |  | 
2 | N=C(N)N(CC(=O)O)Cc1ccccc1 [phenylcreatine, N-benzyl-N-carbamimidoylglycine] | 6.4 times | 6.9 times | 6.7 times | 588.23 ± 25 s | 747.23 ± 17.06 s | 1874.12 ± 114.43 s | 3756.77 ± 97.02 s | 4076.45 ± 276.57 s | 3981.4 ± 202.8 s | 100% | 100% | 99% | 96% | 2 times | remained practically unchanged

— patent US20190367449A1, “PHENYLCREATINE, ITS USE AND METHOD FOR ITS PRODUCTION” (priority 2017, published 2019)
